Measurements: patent US8598119B2, “Methods and compositions for sleep disorders and other disorders” (priority 2008, dated 2013)
Entries after “also recorded” stand apart in the source; their conditions may differ.

Experiments:
[1] = biological target: SERT (rat forebrain synaptosomal membrane) (Rattus norvegicus (Rat), UniProt P31652); assay: Transporter SERT radioligand binding assay in rat forebrain, [3H]-N-Methyl-Citalopram; settings: Table 2
[2] = test system: socially-defeated mice; assay: Social defeat (resident-intruder) mouse model for depression; type: in vivo
[3] = test system: unilateral 6-OHDA-lesioned mice; assay: L-DOPA induced dyskinesia (AIMS) in unilateral 6-OHDA-lesioned mice; type: in vivo, mouse
Source text: Day 1-Day 9: Treatment with L-DOPA/benserazide
Day 10: Treatment with L-DOPA/benserazide+Evaluation of AIMs (dyskinesia)
Experiment 1 (Chronic): Development of Dyskinesia
Day 1-Day 10: Treatment with L-DOPA/benserazide plus ITI-007 ITI-007PD.
Day 11: Treatment with L-DOPA/benserazide+Evaluation of AIMs (dyskinesia)
Experiment 2 (Acute): Expression of dyskinesia
Day 1-Day 10: Treatment with L-DOPA/benserazide
Day 11: Treatment with L-DOPA/benserazide plus ITI-007+Evaluation of AIMs (dyskinesia)
The compound effectively reduces (by ˜50%) the development of dyskinetic behaviors in PD mice (i.e., Chronic treatment group). It has a less robust but still significant effect (by ˜25% reduction) on established dyskinetic behaviors (i.e., Acute treatment group). […] In addition to reducing L-DOPA-Induced Dyskinesias, as described above, the Compounds of Formula I will also reduce PD psychosis and depression, improve poor night time sleep and reduce excessive daytime sleepiness.

[4] = test system: patients with sleep maintenance insomnia (SMI); assay: Clinical trial, overnight PSG in patients with sleep maintenance insomnia; type: in vivo, human; settings: for SWS, Mean Change from Baseline / Total Sleep Time, Mean Change from Baseline / Total Time Awake, Mean Change from Baseline / WASO, Mean Change from Baseline: n = 18, PSG
[5] = biological target: Striatal D2 receptor (Homo sapiens (Human), UniProt P14416); assay: Striatal D2 receptor occupancy by positron emission tomography in healthy volunteers; type: in vivo; settings: PET
Chain of Striatal D2 receptor (P14416 whole entry): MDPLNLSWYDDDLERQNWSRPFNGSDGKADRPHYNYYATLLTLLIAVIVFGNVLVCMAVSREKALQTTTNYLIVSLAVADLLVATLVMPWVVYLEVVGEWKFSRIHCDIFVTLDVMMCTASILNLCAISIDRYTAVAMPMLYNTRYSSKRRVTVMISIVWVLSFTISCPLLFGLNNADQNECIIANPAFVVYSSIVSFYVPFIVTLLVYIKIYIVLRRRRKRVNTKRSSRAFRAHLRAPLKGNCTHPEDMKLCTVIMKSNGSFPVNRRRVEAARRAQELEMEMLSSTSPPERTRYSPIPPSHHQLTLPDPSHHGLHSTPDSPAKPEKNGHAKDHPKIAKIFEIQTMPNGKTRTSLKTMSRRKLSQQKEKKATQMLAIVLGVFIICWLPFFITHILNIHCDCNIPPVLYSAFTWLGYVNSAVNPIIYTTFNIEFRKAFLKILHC

[6] = biological target: human 5-HT2C receptors (Homo sapiens (Human), UniProt P28335, I156V/I160V); assay: biochemical
Chain of human 5-HT2C receptors (P28335 33-458 I156V/I160V): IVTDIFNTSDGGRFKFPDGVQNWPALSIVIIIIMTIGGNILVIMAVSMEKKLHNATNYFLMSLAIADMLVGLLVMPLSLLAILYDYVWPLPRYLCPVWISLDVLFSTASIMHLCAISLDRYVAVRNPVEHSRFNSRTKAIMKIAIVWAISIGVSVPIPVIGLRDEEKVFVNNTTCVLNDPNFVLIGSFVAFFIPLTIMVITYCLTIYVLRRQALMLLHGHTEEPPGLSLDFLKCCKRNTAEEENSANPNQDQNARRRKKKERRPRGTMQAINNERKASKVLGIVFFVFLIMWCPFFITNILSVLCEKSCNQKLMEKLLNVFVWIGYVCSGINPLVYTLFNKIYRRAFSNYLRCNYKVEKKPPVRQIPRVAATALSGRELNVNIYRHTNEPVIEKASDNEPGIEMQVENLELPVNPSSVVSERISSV

[7] = biological target: H1 receptors (Homo sapiens (Human), UniProt P35367); assay: biochemical
Chain of H1 receptors (P35367 whole entry): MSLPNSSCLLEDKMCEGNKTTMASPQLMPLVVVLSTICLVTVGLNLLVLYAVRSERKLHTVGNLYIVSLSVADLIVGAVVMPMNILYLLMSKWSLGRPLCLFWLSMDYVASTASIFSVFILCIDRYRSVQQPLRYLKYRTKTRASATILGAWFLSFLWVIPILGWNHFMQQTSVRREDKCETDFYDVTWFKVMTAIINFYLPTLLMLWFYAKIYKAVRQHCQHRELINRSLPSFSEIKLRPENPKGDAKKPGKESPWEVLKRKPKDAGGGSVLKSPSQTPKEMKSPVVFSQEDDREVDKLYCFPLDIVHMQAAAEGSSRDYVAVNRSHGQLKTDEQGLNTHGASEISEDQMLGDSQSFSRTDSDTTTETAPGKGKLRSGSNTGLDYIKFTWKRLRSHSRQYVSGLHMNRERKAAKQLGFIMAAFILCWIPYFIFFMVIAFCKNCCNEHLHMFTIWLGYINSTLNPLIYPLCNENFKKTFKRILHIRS

[8] = test system: socially-defeated mice; settings: treated daily for 30 days; cited from earlier work
[9] = 1, 5, 10 mg single doses, in words

Chain of SERT (rat forebrain synaptosomal membrane) (P31652 whole entry): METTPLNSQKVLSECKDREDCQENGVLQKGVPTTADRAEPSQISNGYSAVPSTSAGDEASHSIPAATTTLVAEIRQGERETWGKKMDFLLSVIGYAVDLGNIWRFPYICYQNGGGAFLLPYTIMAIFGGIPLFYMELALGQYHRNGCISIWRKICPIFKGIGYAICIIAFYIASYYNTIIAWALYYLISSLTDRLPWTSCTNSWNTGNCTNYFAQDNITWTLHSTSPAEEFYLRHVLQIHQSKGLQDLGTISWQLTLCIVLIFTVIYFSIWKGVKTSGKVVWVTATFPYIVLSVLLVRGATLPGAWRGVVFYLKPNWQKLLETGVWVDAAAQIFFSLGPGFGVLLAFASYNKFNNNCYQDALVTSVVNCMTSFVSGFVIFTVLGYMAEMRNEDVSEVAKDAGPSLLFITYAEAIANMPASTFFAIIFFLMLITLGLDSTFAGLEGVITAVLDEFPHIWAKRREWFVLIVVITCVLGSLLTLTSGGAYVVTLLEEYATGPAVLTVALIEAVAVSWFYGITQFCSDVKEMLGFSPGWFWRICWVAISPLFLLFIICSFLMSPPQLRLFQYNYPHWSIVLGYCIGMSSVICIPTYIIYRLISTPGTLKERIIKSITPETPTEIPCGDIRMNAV

## CN1CCN2c3c(cccc31)[C@@H]1CN(CCCC(=O)c3ccc(F)cc3)CC[C@@H]12 [Compound A, 1-(4-Fluoro-phenyl)-4-((6bR,10aS)-3-methyl-2,3,6b,9,10,10a-hexahydro-1H,7H-pyrido[3′,4′,4,5]pyrrolo[1,2,3-de]quinoxalin-8-yl)-butan-1-one]
[1]
  Ki: 0.046 µM
[2]; 1 mg/kg IP once daily for 29 d, tested day 30, versus socially-defeated mice receiving vehicle
  time in the Interaction Zone, socially-defeated mice: almost twice as much time in the Interaction Zone
[2]; normal mice treated once daily for 30 d, 1 mg/kg IP
  general health and weight gain, normal mice: healthy and normal-appearing and gained weight normally
[2]; normal mice, 1 mg/kg IP once daily, versus vehicle
  time in the Interaction Zone, normal mice: comparable time in the Interaction Zone as mice receiving the vehicle injection
[3]; 0.3 mg/kg IP co-administered with levodopa 10 mg/kg IP, chronic
  reduction of development of dyskinetic behaviors (Chronic treatment group): ~50%
[3]; 0.3 mg/kg IP with levodopa 10 mg/kg IP, acute
  reduction of established dyskinetic behaviors (Acute treatment group): ~25%
[4]; 1 mg single dose
  SWS, Mean Change from Baseline: 0.47 min
  Total Sleep Time, Mean Change from Baseline: 4.17 min
  Total Time Awake, Mean Change from Baseline: -4.08 min
  WASO, Mean Change from Baseline: -12.69 min
[4]; 5 mg single dose
  SWS, Mean Change from Baseline: 5.53 min
  Total Sleep Time, Mean Change from Baseline: 0.56 min
  Total Time Awake, Mean Change from Baseline: -1.42 min
  WASO, Mean Change from Baseline: -14.31 min
[4]; 10 mg single dose
  SWS, Mean Change from Baseline: 8.94 min
  Total Sleep Time, Mean Change from Baseline: 27.61 min
  Total Time Awake, Mean Change from Baseline: -28.31 min
  WASO, Mean Change from Baseline: -33.22 min
[4]; [9]
  effect on slow wave sleep (SWS): increases SWS; also recorded: dose-dependently increase slow wave sleep
  effect on wake time after sleep onset (WASO): dose-dependently decreases WASO; also recorded: dose-dependently decreases wake after sleep onset
[4]; PSG
  duration of REM: no change in duration of REM; also recorded: did not suppress REM sleep
  latency to REM: no change on latency to REM
  latency to fall asleep: does not impair latency to fall asleep
[4]; first and second quarter of the night
  slow wave sleep by part of the night: increases slow wave sleep during the first half of the night
[4]; human, in vivo
  dose-related adverse events or changes in safety parameters: no dose-related adverse events or changes in safety parameters
  early-morning rebound insomnia: no early-morning rebound insomnia
  serious adverse events: no serious adverse events
[4]; in words
  total sleep time: increase total sleep time
[4]; next day
  cognitive function the morning after PSG (DSST, WPAT, Leeds Psychomotor Test): does not impair cognitive function; also recorded: do not impair next-day cognitive function
[4]; over the course of the night
  sleep architecture: preserves normal sleep architecture over the course of the night
[4]; patients with sleep maintenance insomnia
  safety and tolerability: safe and well tolerated; also recorded: safe and well-tolerated
[4]; third and fourth quarter of the night
  stage 2 sleep by part of the night: increases stage 2 sleep during the second half of the night
[5]; 20 mg
  % Striatal D2 Occupancy: ~20%
[5]; 30 mg
  % Striatal D2 Occupancy: ~32%
[6]
  Ki: 0.173 µM
[7]
  Ki: > 0.1 µM

## CN(C)CCCN1c2ccccc2CCc2ccccc21 [IMI, imipramine]
[8]
  social interaction behavior of socially defeated mice after chronic anti-depressant: improved social interaction behavior

## CNCCC(Oc1ccc(C(F)(F)F)cc1)c1ccccc1 (centres unmarked) [fluoxetine]
[8]
  social interaction behavior of socially defeated mice after chronic anti-depressant: improved social interaction behavior
